Patent US12208093B2 (THE JOHNS HOPKINS UNIVERSITY, priority 2016, dated 2025)
Entries after “also recorded” stand apart in the source; their conditions may differ. Where a name gives a salt, the structure may show the parent alone.

How the values were obtained:
MDM2-IE2 interaction = test: Co-immunoprecipitation of MDM2 and IE2 in transfected HEK293 cells; format: cell-based; conditions: HEK293 cells transfected with IE1/2; emetine 75 nM or GCV 5 μM, 4 h
Method: Transient transfections. HEK-293 cells seeded into 10 cm petri dishes were transfected with HCMV plasmid encoding IE1 and IE2 (pRL45) plasmid, 1 μg/dish, using Lipofectamine 2000 in serum free medium. After 6 h, 10% FBS containing media was added along with 10 μM of MG132. […] Cells were then harvested to prepare lysates for IP.
Co-immunoprecipitation (IP) and immunoblotting. Non-infected, infected or emetine-treated HFFs were treated with MG132 (10 μM) for 12 h. Cells were harvested after 24 hpi and lysed with IP buffer containing 150 mM NaCl, 50 mM Tris pH 7.5, 2 mM EDTA, 0.5% TritonX-100 and 0.5% NP-40-40. 1 mg of lysate was precleared with bead slurry for 30 min. The precleared lysates were incubated with anti-MDM2 (2 μg) antibody overnight. The antibody complexes were isolated using protein A/G beads (Santa Cruz), washed three times with 50% IP buffer. The immunoprecipitate—protein A/G beads were boiled in SDS sample buffer, and the supernatant was analyzed on SDS-PAGE gels after immunoblotting as described previously. […] Reverse IPs were performed by pulling down the precleared lysates with either anti-p53 antibody or anti-RPS14 antibody and detected with MDM2. […] In other experiments, transfected or treated HEK293 cell lysates were pulled-down with anti-IE2 antibody and detected with anti-MDM2 antibody and vice-versa for reverse IP.

HCMV entry = test: Virus entry immunofluorescence assay for pp65; format: cell-based; conditions: emetine 75 nM, GCV 10 μM, CpG 2006 10 μM; added 24 h prior to infection; dihydrochloride hydrate
Method: Immunofluorescence. […] Compounds were diluted in serum-free medium and added to HFFs seeded on chamber slides 24 h prior to infection. After infection and treatment, cells were fixed, permeabilized, and air-dried. Cells were then incubated with mouse monoclonal anti-pp65 antibody at 37° C. in humidified chambers for 1 h, washed three times with 0.1% Tween 20 in PBS (PBST), incubated with rhodamine conjugated anti-mouse IgG (Sigma Chemical Co) at 37° C. in humidified chambers for 1 h, and washed with PBST (0.1% Tween 20). A drop of mount oil containing DAPI (4,6-diamidino-2-phenylindole) (Santa Cruz) was added to the slides before visualization with a Nikon Eclipse E-800 fluorescence microscope.

[1] = test system: HSV-2 (clinical isolates); test: HSV-2 plaque assay in HFFs; format: cell-based, herpes simplex virus 2; conditions: nM concentrations
Excerpt: (§1) Cell culture, virus infection and anti-viral assays.

[2] = test system: HCMV in RPS14 knockdown cells; format: cell-based, human cytomegalovirus (HCMV); conditions: contact-inhibited RPS14 knockdown cells; luciferase first and second cycle, pp65 at 72 hpi; dihydrochloride hydrate
[3] = test system: pp28-luciferase HCMV Towne; test: Second cycle luciferase assay; format: cell-based, human cytomegalovirus (HCMV); conditions: emetine 75 nM, vs infected control
Excerpt: as §1

protein synthesis = conditions: at concentration that inhibit CMV replication in vitro; cited from earlier work
[4] = test system: HSV-1 (luciferase HSV1-KOS/Dlux/oriS); test: HSV-1 luciferase assay in HFFs; format: cell-based, herpes simplex virus 1; conditions: nM concentrations
Excerpt: as §1

in vivo = test: in vivo
Method: Pharmacokinetics and CMV inhibition in mice. […] The dosing solution was prepared in saline with a dosing volume of 10 mL/kg. Blood and tissue samples including liver, lung and spleen were collected at 0, 0.083, 0.25, 0.5, 0.75, 1, 2, 3, 4, 7, 24, 30, 48, 72 and 96 hr. […] Pharmacokinetic parameters (Cmax, Tmax, AUC and t1/2) were calculated with a non-compartmental approach using the Pharsight WinNonLin software (Ver. 6.4). The experimental procedures were approved by the Animal Care and Use Committee of Division of Veterinary Resources, NIH.

HCMV Towne = HCMV Towne plaque reduction assay in HFFs; format: cell-based, human cytomegalovirus (HCMV)
Excerpt: as §1

[5] = test system: pp28-luciferase HCMV Towne; test: microbe, parasite or virus in culture; format: cell-based, human cytomegalovirus (HCMV)
Excerpt: A GCV-resistant pp28-luciferase HCMV strain, with a C607Y mutation in UL97 was also used. The recombinant viruses express luciferase under the control of the late CMV gene promoter, pp28. […] The recombinant viruses provide a highly-sensitive and reproducible reporter system which correlates with the classic plaque reduction assay. […] Human herpes virus strains were: luciferase HSV1-KOS/Dlux/oriS and clinical isolates of HSV2.
Cell culture, virus infection and anti-viral assays. […] Infection with HCMV or HSV was performed in HFFs, and infection with mouse CMV was performed in MEFs. For HCMV, cells were seeded in either a 96-well plate or 100 mm culture plates (Corning Costar, Sigma Aldrich) at 0.5 or 2 million cells/plate. Following 90 minute adsorption, media was removed and cells were washed with PBS. Media containing 4% FBS and compounds were added to each well. Infected treated HFFs were collected at 72 hpi and lysates were assayed for luciferase activity using a luciferase assay kit (Promega, Madison, WI) on GloMax®-Multi+Detection System (Promega). In second cycle assays, supernatants were collected from all conditions of the first cycle at 96 hpi and used for infection of fresh HFFs in 96-well-plates. […] For HSV1-KOS/Dlux/oriS, a luciferase assay was performed at 24 hpi. Plaque assays were performed with clinical isolates of HSV2 and HCMV Towne. […] Following virus adsorption (60 min and 90 min for HSV and HCMV, respectively), virus was aspirated, and DMEM containing 4% fetal bovine serum (FBS) with (for HSV) or without (for HCMV) 0.5% carboxymethyl-cellulose, were added with the compounds at indicated concentrations into triplicate wells. After incubation at 37° C. for 10 days (for HCMV) or 2 days (for HSV), the overlay was removed and plaques were counted after crystal violet staining.

RPS14 = RPS14 (Homo sapiens, UniProt P62263); test: Confocal microscopy of RPS14 localization; format: cell-based; conditions: 24 hpi; infected cells; emetine 75 nM
Method: Confocal microscopy. […] Cells were fixed with 3.7% paraformaldehyde for 20 min at room temperature, permeabilized with ice cold methanol for 10 min at −20° C. and blocked with 5% bovine serum albumin in 0.5% Tween-20 for 20 min at room temperature. Cells were incubated with primary antibodies at 4° C. overnight, washed and incubated with fluorescently labeled secondary antibodies for 2 h at 37° C. Fluorescence microscopy was performed by using a confocal laser scanning microscope (Nikon EZ Cl confocal microscope). All images were captured at 60× magnification and processed under identical conditions with constant parameters (including scan speed and excitation and emission wavelengths) using Nikon EZ Cl software.

malaria = conditions: 17 patients; 40 mg IM x 6 daily doses; cited from earlier work
[6] = Cell viability (MTT) assay; conditions: human, non-infected HFFs
MCMV = MCMV infection model in BALB/c mice; format: in vivo, Murid Herpesvirus (MCMV) in BALB/c mice
Method: Control mice received 0.1 ml of saline intraperitoneally. […] Control and infected mice received equivalent volumes of saline. […] Mice were sacrificed at day 14 after infection. Blood samples were collected by cardiac puncture. […] Two million MEFs were seeded into 24 well plates. […] Plaques were counted after three days. […] The gB primers were: F: 5′ […] 3′ (SEQ ID NO:1); R: 5′ […] 3′(SEQ ID NO:2) (43).

[7] = test system: GCV-resistant pp28-luciferase HCMV (C607Y mutation in UL97); conditions: nM concentrations
Method: Viruses. The pp28-luciferase HCMV Towne strain was constructed as previously described. A GCV-resistant pp28-luciferase HCMV strain, with a C607Y mutation in UL97 was also used. The recombinant viruses express luciferase under the control of the late CMV gene promoter, pp28. Luciferase expression is strongly activated 48-72 hours post infection (hpi). The recombinant viruses provide a highly-sensitive and reproducible reporter system which correlates with the classic plaque reduction assay.
Cell culture, virus infection and anti-viral assays. Human Foreskin Fibroblasts (HFFs) passage 12-16 (ATCC, CRL-2088™) and mouse embryonic fibroblasts (MEFs) passage 9-14 (ATCC, CRL-1658™) were grown in Dulbecco's Modified Eagle Medium (DMEM) containing 10% fetal bovine serum (FBS) (Gibco, Carlsbad, CA) in a 5% CO2 incubator at 37° C. Infection with HCMV or HSV was performed in HFFs, and infection with mouse CMV was performed in MEFs. For HCMV, cells were seeded in either a 96-well plate or 100 mm culture plates (Corning Costar, Sigma Aldrich) at 0.5 or 2 million cells/plate. Following 90 minute adsorption, media was removed and cells were washed with PBS. Media containing 4% FBS and compounds were added to each well. […] Luciferase activity was measured 72 h following second cycle infection.

In the case of CC[C@H]1CN2CCc3cc(OC)c(OC)cc3[C@@H]2C[C@@H]1C[C@H]1NCCc2cc(OC)c(OC)cc21 [emetine, emetine dihydrochloride hydrate], the “interaction of MDM2 and IE2” value (MDM2-IE2 interaction) is reported as “significantly decreased”, the “inhibition of viral entry” value (HCMV entry) is reported as “neither emetine nor GCV inhibited viral entry; also recorded: does not inhibit” and the “inhibition of HSV-2” value [1] is reported as “inhibited”. For the same compound, the “HCMV inhibition in RPS14 knockdown cells” value [2] was “unable to inhibit HCMV; also recorded: loss of HCMV inhibition”, the “increase in pp28-luciferase activity, second cycle infection” value ([3]; 0.5 million cells/plate, p>0.5) was 1.5 fold and the “reduction in pp28-luciferase activity, second cycle infection” value ([3]; 1 million cells/plate, p<0.001) was 1.5 fold. For the same compound, the “pp28-luciferase activity, second cycle infection” value ([3]; 2 million cells/plate, p<0.001) was “almost complete inhibition”, the “inhibition of protein synthesis” value (protein synthesis) was “no inhibition of protein synthesis” and the “inhibition of HSV-1” value [4] was “inhibited”. It also gave a Cmax (in vivo; male, BALB/c, mouse, in vivo, 0.1 mg/kg) of 1.4 ng/mL, a half-life (in vivo; male, BALB/c, mouse, in vivo, ip, 0.1 mg/kg, half-life, single intraperitoneal administration 0.1 mg/kg, mice) of 32 h and a half-life (in vivo; male, BALB/c, mouse, in vivo, po, 1 mg/kg, half-life, single oral administration 1 mg/kg, male BALB/c mice) of 32 h. The half-life (in vivo; single oral administration 1 mg/kg, male BALB/c mice, dihydrochloride hydrate, 1 mg/kg) was 24 h, the “inhibition of HCMV by plaque reduction assay” value (HCMV Towne) was “further confirmed” and the “reduction in the number and size of plaques” value (HCMV Towne; 2 million cells/plate (p<0.001) as compared to 0.5 million cells/plate, emetine 75 nM) was 30 fold. The “HCMV inhibition in relation to cell density at time of infection” value ([5]; HFFs 0.5-2 million cells/plate, emetine 75 nM, GCV 5 μM) was “significant virus inhibition was observed only at higher cell density”, the EC50 ([5]; Human betaherpesvirus 5, read-out: EC50 against HCMV) was 0.04 µM and the “reduction in normalized luciferase activity at low cell density” value ([5]; emetine 75 nM, 0.5 million cells/plate in 96-well plate) was “no significant reduction”. For the same compound, the “concentration that fully inhibits HCMV” value ([5]; luciferase at 72 hpi) was 75 nM, the RPS14 localization (RPS14) was “induced RPS14 translocation into the nucleus” and the treatment of malaria (malaria) was “successful treatment”. The CC50 at 72 h [6] was 8 µM, the “MCMV inhibition in mice” value (MCMV; oral every 72 h / three days, low dose 0.1 mg/kg, dihydrochloride hydrate, 0.1 mg/kg) was “inhibited; also recorded: high efficacy; also recorded: inhibits mouse CMV replication; also recorded: effectively suppressed MCMV” and the “difference in efficacy between 0.1 and 1 mg/kg” value (MCMV; oral, every three days) was “no significant difference”. For the same compound, the “inhibition of GCV-resistant HCMV” value [7] was “inhibited”.
